± gives the expanded uncertainty stated by the source.
Experiment: xn = mol fraction of the nth substance listed
Settings: Liquid; for mass density: 293.15 K, Vibrating tube method; for viscosity: Concentric cylinders viscometry

Cc1ccc(C)c(C)c1 [1,2,4-trimethylbenzene] + CCCCO
mass density [kg/m3]
Settings	x2 = 0	x2 = 0.1005	x2 = 0.2261	x2 = 0.2999	x2 = 0.3966	x2 = 0.5289	x2 = 0.6367	x2 = 0.7249	x2 = 0.7977	x2 = 0.9131
100 kPa	–	–	–	859.9 ± 0.7	854.5 ± 0.7	846.5 ± 0.7	839.4 ± 0.7	833.1 ± 0.7	827.5 ± 0.7	817.8 ± 0.7
1000 kPa	875.7 ± 0.7	870.8 ± 0.7	864.3 ± 0.7	860.4 ± 0.7	855 ± 0.7	847.1 ± 0.7	840 ± 0.7	833.7 ± 0.7	828.1 ± 0.7	818.4 ± 0.7
5000 kPa	878.2 ± 0.7	873.4 ± 0.7	867 ± 0.7	863.1 ± 0.7	857.8 ± 0.7	849.8 ± 0.7	842.8 ± 0.7	836.5 ± 0.7	831 ± 0.7	821.3 ± 0.7
10000 kPa	881.4 ± 0.7	876.6 ± 0.7	870.2 ± 0.7	866.4 ± 0.7	861.1 ± 0.7	853.1 ± 0.7	846.1 ± 0.7	839.9 ± 0.7	834.3 ± 0.7	824.7 ± 0.7
20000 kPa	887.3 ± 0.7	882.6 ± 0.7	876.2 ± 0.7	872.5 ± 0.7	867.2 ± 0.7	859.4 ± 0.7	852.3 ± 0.7	846.2 ± 0.7	840.6 ± 0.7	831.1 ± 0.7
30000 kPa	892.9 ± 0.7	888.3 ± 0.7	881.9 ± 0.7	878.2 ± 0.7	873 ± 0.7	865.2 ± 0.7	858.2 ± 0.7	852.1 ± 0.7	846.5 ± 0.7	837.1 ± 0.8
40000 kPa	898.2 ± 0.7	893.7 ± 0.7	887.4 ± 0.7	883.6 ± 0.7	878.5 ± 0.7	870.7 ± 0.8	863.7 ± 0.8	857.6 ± 0.8	852.1 ± 0.8	842.7 ± 0.8
50000 kPa	903.2 ± 0.7	898.7 ± 0.7	892.4 ± 0.8	888.8 ± 0.8	883.6 ± 0.8	875.8 ± 0.8	868.9 ± 0.8	862.8 ± 0.8	857.3 ± 0.8	847.9 ± 0.8
60000 kPa	908 ± 0.8	903.5 ± 0.8	897.3 ± 0.8	893.6 ± 0.8	888.6 ± 0.8	880.8 ± 0.8	873.8 ± 0.8	867.8 ± 0.8	862.3 ± 0.8	852.9 ± 0.8
70000 kPa	912.6 ± 0.8	908.3 ± 0.8	901.9 ± 0.8	898.4 ± 0.8	893.2 ± 0.8	885.5 ± 0.8	878.6 ± 0.8	872.6 ± 0.8	867 ± 0.8	857.7 ± 0.8
80000 kPa	916.9 ± 0.8	912.6 ± 0.8	906.4 ± 0.8	902.8 ± 0.8	897.6 ± 0.8	890 ± 0.8	883 ± 0.8	877 ± 0.8	871.6 ± 0.8	862.3 ± 0.8
90000 kPa	921.1 ± 0.8	916.8 ± 0.8	910.6 ± 0.8	907 ± 0.8	901.9 ± 0.8	894.2 ± 0.8	887.4 ± 0.8	881.3 ± 0.8	875.9 ± 0.8	866.6 ± 0.9
100000 kPa	925.1 ± 0.8	920.8 ± 0.8	914.7 ± 0.8	911.1 ± 0.8	906 ± 0.8	898.4 ± 0.8	891.5 ± 0.8	885.4 ± 0.9	880 ± 0.9	870.7 ± 0.9
120000 kPa	932.8 ± 0.8	928.6 ± 0.8	922.5 ± 0.8	918.9 ± 0.8	913.9 ± 0.8	906.2 ± 0.8	899.3 ± 0.9	893.3 ± 0.9	887.9 ± 0.9	878.7 ± 0.9
140000 kPa	939.9 ± 0.8	935.6 ± 0.8	929.8 ± 0.8	926 ± 0.8	921.1 ± 0.8	913.5 ± 0.9	906.7 ± 0.9	900.7 ± 0.9	895.4 ± 0.9	886.1 ± 0.9

viscosity [mPa·s], 100 kPa
Settings	x2 = 0	x2 = 0.1002	x2 = 0.2327	x2 = 0.3	x2 = 0.3969	x2 = 0.53	x2 = 0.637	x2 = 0.7975	x2 = 0.9131
303.15 K	0.779 ± 0.017	0.783 ± 0.017	0.818 ± 0.017	0.857 ± 0.018	0.919 ± 0.019	1.049 ± 0.022	1.203 ± 0.025	1.559 ± 0.032	1.916 ± 0.039
313.15 K	0.692 ± 0.015	0.69 ± 0.015	0.716 ± 0.015	0.744 ± 0.016	0.787 ± 0.017	–	–	–	–

Source: the NIST ThermoML archive (doi:10.1016/j.jct.2017.03.006)
